What was measured:
Plasmodium falciparum [1] = test: NOVARTIS: Inhibition of Plasmodium falciparum 3D7 (drug-susceptible) proliferation in erythrocyte-based infection assay; format: functional, organism-based; settings: Plasmodium falciparum, 3D7
Plasmodium falciparum [2] = test: NOVARTIS: Inhibition of Plasmodium falciparum W2 (drug-resistant) proliferation in erythrocyte-based infection assay; format: functional, organism-based; settings: Plasmodium falciparum, W2; read-out: EC50
[3] = NOVARTIS: Cytotoxicity against human hepatocellular carcinoma cell line (Huh7); format: toxicity, cell-based, Huh-7; settings: Huh7 cells (hepatocellular carcinoma cell line)

Compound	EC50 (Plasmodium falciparum [1]) [nM]	EC50 (Plasmodium falciparum [2]) [nM]	CC50 [3] [nM]
COc1ccc(/C=C\c2cc[n+](C)cc2)cc1OC	1110	> 1250	> 10000
Cc1ccc(S(=O)(=O)NC(=O)Nc2ccc(N(C)C)cc2)cc1	324	467	20400
c1ccc(-c2c3c(cc4ccccc24)C[N+]2(CCCC2)C3)cc1	1340	1730	> 100000
CCOC(=O)c1cnc2ccccc2c1Nc1ccc(C(C)=O)cc1	343	386	> 73800
COc1ccc(Nc2nc(NN=Cc3cccc([N+](=O)[O-])c3)nc(Nc3ccc([N+](=O)[O-])cc3)n2)cc1	406	404	> 100000
CC(C)NC(=O)N1CCN(C(=O)C(Cc2c[nH]c3ccccc23)NC(=O)Nc2cccc(C#N)c2)CC1C (centres undefined)	56.7	211	> 10000
Cc1cc(N2CCC(C)CC2)nc2ccc(NC(=O)c3ccc([N+](=O)[O-])o3)cc12	1660	2140	21900
CC(=NNC(=S)N(C)C)c1ccccn1	311	338	> 10000
CCCC[n+]1c(-c2ccccc2)cc(-c2ccccc2)cc1-c1ccccc1	824	467	12900
CC(=O)N(C1=C(N2CCCCCC2)C(=O)c2ccccc2C1=O)C1CCCCC1	137	93.9	30200
O=C(Nc1ccc(-c2nc3cc(NC(=O)C(c4ccccc4)c4ccccc4)ccc3[nH]2)cc1)C(c1ccccc1)c1ccccc1	4450	3680	> 100000
O=C(Nc1cccc(N2CCC(NCC3CCCCC3)CC2)c1)C1CC1	3680	1180	> 100000
CCOC(=O)c1cnc2ccc(OC)cc2c1NCc1cccs1	5900	3720	> 100000
CN1C[C@@H](CSc2ccccn2)C=C2c3cccc4[nH]cc(c34)C[C@H]21	226	393	> 10000
COc1ccc(C2CC(=O)C3=C(C2)NC(C)=C(C(=O)OC(C)C)C3c2ccc(F)cc2)cc1OC (centres undefined)	9.45	13.1	22800
O=C(NNC(=O)c1csnn1)c1ccc(Cl)cc1	781	1290	> 100000
COc1ccc(-c2csc(Nc3ccc(O)cc3)n2)cc1OC	2960	3210	> 100000
CC(C)(C)CC(C)(C)Nc1c(-c2ccccc2OC(=O)c2ccccc2)nc2ccccn12	1070	26.8	> 1260
COc1ccc(OCC(=O)Nc2c(C)n(C)n(-c3ccccc3)c2=O)cc1	> 1250	> 1160	> 10000
CCOC(=O)c1cnc2c3c(ccc2c1O)CCCC3	133	137	> 100000
Oc1ccc(-c2ccccc2)cc1CN1CCCCC1	1080	132	> 10000
COc1ccc(-c2cc3c(nn2)-c2ccccc2C3=O)cc1	3840	1640	65800
CCCCCN(CC(=O)Nc1cc(C(C)(C)C)nn1-c1ccc(Cl)c(Cl)c1)C(=O)c1cccc(OC)c1	597	992	> 10000

Compound	EC50 (Plasmodium falciparum [1]) [nM]	EC50 (Plasmodium falciparum [2]) [nM]	CC50 [3] [nM]
CC(CCCNCCO)Nc1ccnc2cc(Cl)ccc12 (centres undefined) [CLETOQUINE]	26.9	736	14000
CCN(CC)CCCC(C)N=c1cc(C=Cc2ccc([N+](=O)[O-])cc2)[nH]c2ccc(OC)cc12 (centres undefined)	20.9	14	11700
CC(C)(C)C(=O)Cn1ccc(=N)c2ccccc21	2030	877	> 100000
COc1ccc(C2C(C(=O)Nc3cccc(OC)c3)c3ccccc3C(=O)N2C2CCCCC2)cc1 (centres undefined)	1110	332	> 100000
Cc1ccc(N2C(N)=NC(N)=NC2(C)C)c(C)c1	105	> 12500	> 100000
COc1ccc(C2CC(c3cccs3)=NN2C(=O)CSc2nnc(CNC(=O)c3cccs3)n2-c2cc(C)ccc2C)cc1 (centres undefined)	> 8550	1140	> 100000
CN(CCCNc1ccnc2cc(Cl)ccc12)C(=O)C1CCC1	192	93	4570
Cc1ccn2c(NC(C)(C)CC(C)(C)C)c(-c3ccccc3OS(=O)(=O)CC34CCC(CC3=O)C4(C)C)nc2c1 (centres undefined)	1360	147	> 10000
COc1ccc(N(CC(=O)NCCc2ccc(F)cc2)S(=O)(=O)c2ccccc2)cc1	> 12500	5620	> 100000
COc1cc(Nc2nccn3c(-c4ccsc4)cnc23)cc(OC)c1OC	> 1250	1650	> 10000
Cc1nc2cc(-c3ccc(F)cc3)nn2c(NCCCn2ccnc2)c1C	990	776	> 10000
COc1ccc(C2c3[nH]c4ccccc4c3C[C@H]3C(=O)N(CCC(C)C)CC(=O)N23)cc1 (some centres undefined)	3190	497	> 100000
CCCCCN(C(=O)c1ccc(Cl)cc1)C(CC)c1nc2ccccc2c(=O)n1-c1ccccc1OC (centres undefined)	878	1050	> 8820
CC(=O)NC1=NN(C(C)=O)C(C)(c2ccc([N+](=O)[O-])cc2)S1 (centres undefined)	497	132	> 100000
COc1cccc(C(=O)N(CCCC(C)Nc2cc(OC)cc3cccnc23)Cc2ccc(F)cc2)c1 (centres undefined)	666	154	3730
COc1cccc(NC(=O)c2ccc(NCCCN3CCC(C)CC3)c([N+](=O)[O-])c2)c1	296	521	18700
CCN(CC)c1ccc(/C=C(/C#N)c2nc3ccccc3[nH]2)o1	> 1250	> 702	> 333
CC12CN3CC(C)(CN(C1)C3c1ccccc1)C2=O (centres undefined)	> 11200	> 10000	> 100000
O=[N+]([O-])c1cccc(CNc2ccc(F)c(Cl)c2)c1	> 12500	8050	> 95600
c1ccc2c(NCCNc3c4ccccc4nc4ccccc34)c3ccccc3nc2c1	82.9	858	11800
Nc1cc(C(=O)Nc2ccc(C3=NCCCN3)cc2)ccc1C(=O)Nc1ccc(C2=NCCCN2)cc1	190	123	> 100000
O=C(NCCc1ccccc1)c1cnc(NCCCn2ccnc2)nc1NC1CCCC1	678	1720	> 8690
CCOc1ccc2[nH]c(=O)c(CN(Cc3ccccc3OC)C(C)=O)cc2c1	> 1740	> 1210	> 10000

Compound	EC50 (Plasmodium falciparum [1]) [nM]	EC50 (Plasmodium falciparum [2]) [nM]	CC50 [3] [nM]
Cc1cc(C)n(N=Cc2cccc(Cl)c2)c(=O)c1C#N	> 12500	9060	> 100000
CCn1c(SCC(=O)Nc2ccc(OC)cc2)nc2ccsc2c1=O	> 1250	475	> 11700
O=C1c2ccccc2-c2nc3c(Cl)cc(C(F)(F)F)cc3nc21	1040	747	> 10000
CCCOc1ncnc2c1sc1nc3c(cc12)COC(C)(C)C3	> 967	> 936	> 10000
Cc1cc(C)n(CC(O)Cn2c3ccc(Cl)cc3c3cc(Cl)ccc32)n1 (centres undefined)	1010	342	45500
Cc1ccc(NC(=O)c2cc(C(=O)c3cc(Cl)ccc3O)cn(-c3ccc(C)c(C)c3)c2=O)cc1C	8070	6900	> 100000
CCOc1ccc2c(c1)c1nnc(-c3ccc4c(c3)OCO4)c-1cn2Cc1ccc(Cl)cc1	8390	4980	14600
O=C(O)CCCNC(=O)C(O)(c1ccccc1)c1ccccc1	> 12500	1330	> 100000
Nc1c(C(=O)Nc2ccc(F)cc2)sc2nc3c(c(-c4cccs4)c12)CCCC3	1130	1710	> 100000
CCOC(=O)c1nnn(-c2nonc2-n2cccc2)c1CN1CCCCC1	2430	2210	> 100000
COC(=O)[C@@H]1C[C@@H](NC(=O)c2ccc(OC)cc2OC)CN1C/C(C)=C/c1ccccc1	432	821	> 10000
COc1ccc(-c2c(C(F)(F)F)nn(C)c2NC(=O)Nc2ccc(F)cc2F)cc1	242	356	78200
Cc1cc2c(cc1C)NC(c1ccccc1F)C1=C(CC(C)(C)CC1=O)N2 (centres undefined)	1650	1790	> 100000
O=C1c2ccccc2-c2nc3ccc(C(F)(F)F)cc3nc21	1140	1260	> 10000
COc1cc(NC(=O)Cn2c3ccccc3c(=O)c3ccccc32)cc(OC)c1OC	2730	816	> 100000
O=C(Nc1ccc(-c2cn3ccsc3n2)cc1)c1ccc(S(=O)(=O)N2CCCCCC2)cc1	634	1230	17600
O=C(Nc1ccc(Br)cn1)c1ccc(Oc2cc(Oc3cccc(Cl)c3)cc([N+](=O)[O-])c2)cc1	> 1250	> 1180	> 10000
C=C[C@H]1CN2CC[C@H]1C[C@H]2[C@H](OC(=O)CCCC)c1ccnc2ccccc12	942	452	> 10000
CCCc1c(CC)c(=N)c2ccccc2n1C	762	1140	> 100000
COc1ccccc1/C=C/CN(CCN1CCN(S(=O)(=O)c2cccc(C(F)(F)F)c2)CC1)C(=O)Cc1ccccc1	1320	> 1250	> 10000
COCCN1C(=O)c2[nH]nc(-c3ccccc3O)c2C1c1ccc(SC)cc1 (centres undefined)	7390	2780	> 87600
O=C(NN=CC1CC=CCC1)c1ccc([N+](=O)[O-])cc1Cl (centres undefined)	> 1250	> 549	> 10000

From ChEMBL document CHEMBL1156829 (Proc Natl Acad Sci U S A, 2008)
